Laboratory results taken from US20100249064A1, “METHODS AND COMPOSITIONS FOR TREATING DISEASES AND CONDITIONS INVOLVING HIGHER MOLECULAR WEIGHT HYALURONAN” (University of Chicago, priority 2007, published 2010).
Entries after “also recorded” stand apart in the source; their conditions may differ.

Legend:
Human pulmonary EC [1] = assay: TER, Example 5; assay type: cell-based; settings: for change in TER: human pulmonary EC, Example 5
Method: Measurement of TransEC Electrical Resistance (TER). EC were grown to confluence in polycarbonate wells containing evaporated gold microelectrodes, and TER measurements performed using an electrical cell-substrate impedance sensing system (Applied Biophysics, Troy, N.Y.) as previously described (Garcia et al., 2001). TER values from each microelectrode were pooled at discrete time points and plotted versus time as the mean±S.E.

CD44 = CD44 expression in mouse lung homogenates (immunoblot); assay type: in vivo
Method: (§1) Animal Preparation and Treatment. Male C57BL/6J, B6129N2, CD44^−/− or caveolin-1^−/− mice (8-10 weeks, Jackson Laboratories, Bar Harbor, Me.) were anesthetized with intraperitoneal ketamine (150 mg/kg) and acetylpromazine (15 mg/kg) before exposure of the right internal jugular vein via neck incision. LPS (2.5 mg/kg) or water (control) were instilled intratracheally. Four hours later, mice receive high MW HA (1.5 mg/kg) or water control through the internal jugular vein. The animals were allowed to recover for 24 hours after LPS before bronchioalveolar lavage protein and cytokine concentration and/or lung immunohistochemistry/immunoblot analysis (Peng et al., 2004).
Immunoblot analysis of CD44 and Caveolin-1 expression in control, LPS- and HA-treated mouse lung homogenates. CD44 is highly likely to be important in lung disease as CD44−/− mice develop lung fibrosis, inflammatory cell recruitment and accumulation of hyaluronan fragments at sites of lung injury (Teder et al., 2002). […] Caveolin-1 can be differentially regulated in various models of acute lung injury (ALI). Monocrotaline-induced rodent pulmonary hypertension results in a loss of lung EC caveolin-1 expression (Mathew et al., 2004). In contrast, there is no change in pulmonary caveolin-1 expression in lipopolyscaaharide (LPS)-induced sepsis with lung injury (Garrean et al., 2006). […]

Human pulmonary EC [2] = assay: Atomic Force Microscopy of EC morphology and lipid rafts; assay type: cell-based; settings: 100 nM high MW HA
Method: Atomic Force Microscopy. The protocols/procedures for AFM analysis of 50 to 100 nm pits (CEM, lipid rafts), EC height and force measurements were previously described in detail (Dvorak, 2003, Reich et al., 2001, Henderson et al., 2004, Milhiet et. al., 2004, Miklaszewska, 2004, Lucius, 2003). EC treated with various siRNAs or treated with MβCD with or without 100 nM high MW HA (0, 15, 30, 60 min.) were fixed in 4% glutaraldehyde and analyzed in tapping mode on a DI multimode AFM (Digital Instruments, Santa Barbara, Calif.) using a V-shaped oxide-sharpened silicon nitride cantilever with an optical scanning speed of ˜1.0 Hz to obtain a surface topology map which was quantitated and spatially defined using Metamorph™ software. For live cells, GFP and GFP-caveolin-1 expressing EC were treated with or without 100 nM high MW HA in a DI Bioscope cell chamber (Digital Instruments, Santa Barbara, Calif.) were exposed to tapping mode AFM with concurrent fluorescence scanning and images were obtained using a C5985 chilled CCD camera (Hamamatsu Photonics Systems, Bridgewater, N.J.).

[3] = tested on: LPS-induced murine lung vascular permeability; assay: LPS-induced murine lung vascular permeability, bronchioalveolar lavage (BAL) protein and cytokines; assay type: in vivo, mouse; settings: for LPS-induced pulmonary hyper-permeability (BAL protein concentration): wildtype C57BL/6J mice, LPS 2.5 mg/kg intratracheally, HMW-HA 1.5 mg/kg or HGF 50 μg/kg intravenously 4 hours after LPS, BAL at 24 hours
Method: Animal Preparation and Treatment—Male C57BL/6J and CD44 knockout mice (8-10 weeks, Jackson Laboratories, Bar Harbor, Me.) were anesthetized with intraperitoneal ketamine (150 mg/kg) and acetylpromazine (15 mg/kg) according to approved protocols. LPS (2.5 mg/kg) or saline (control) were instilled intratracheally and four hours later, HGF (50 μg/kg) or saline control delivered intravenously through the internal jugular vein. The animals were allowed to recover for 24 h followed by bronchioalveolar lavage protein analysis and/or lung immunohistochemistry.
Determination of Bronchioalveolar Lavage Protein Concentration—Bronchioalveolar lavage (BAL) was performed by an intratracheal injection of 1 cc of Hank's balanced salt solution followed by gentle aspiration. The recovered fluid was processed for protein concentration (BCA Protein Assay Kit; Pierce Chemical Co., Rockford, Ill.) as described (Su et al., 2004).
Animals. Male C57BL/6J mice, CD44 knockout mice, Caveolin-1 knockout mice (8-10 weeks, Jackson Laboratories, Bar Harbor, Me.) were anesthetized with intraperitoneal ketamine (150 mg/kg) and acetylpromazine (15 mg/kg) according to approved protocols. LPS (2.5 mg/kg) or saline (control) were instilled intratracheally and four hours later, HMW-HA (1.5 mg/kg) or saline control delivered intravenously through the internal jugular vein. The animals were allowed to recover for 24 hours followed by bronchioalveolar lavage protein analysis and/or lung immunohistochemistry.
Determination of protein concentration. Total protein concentration. TGF-alpha concentration. TGF-beta1 concentration. Bronchioalveolar lavage (BAL) was performed by an intratracheal injection of 1 cc of Hank's balanced salt solution followed by gentle aspiration. The recovered fluid was processed for protein concentration (BCA Protein Assay Kit; Pierce Chemical Co., Rockford, Ill.) or used to determine TNF-α and TGF-β1 concentrations using quantitative sandwich enzyme immunoassays (R & D Systems, Minneapolis, Minn.).
as §1
Determination of Bronchoavleolar Lavage Protein and Cytokine Concentration. Bronchioalveolar lavage (BAL) was performed by an intratracheal injection of 1 cc of Hank's balanced salt solution followed by gentle aspiration. The recovered fluid was processed for protein concentration (BCA Protein Assay Kit; Pierce Chemical Co., Rockford, Ill.) (Peng et. al., 2004). Cytokines (IL-6, TNFalpha) were measured using a Quantikine sandwich ELISA kit (R & D Systems).

MARCKS and NHE1 = assay: LPS-induced phosphorylation of MARCKS and NHE1 (immunoprecipitation/immunoblot); assay type: cell-based, human; settings: LPS 1 μg/ml, 4 hours, HMW-HA 100 nM or Y-27632 500 nM
[4] = wild type mice, LPS 2.5 mg/kg, HMW-HA 1.5 mg/kg i.v. after 4 hours

hyaluronan [HMW-HA] was tested, and the “time at which HMW-HA-induced increase in TER reached plateau” value (Human pulmonary EC [1]) was roughly 3 h, the “protection from LPS-induced EC barrier disruption (TER)” value (Human pulmonary EC [1]; HMW-HA (100 ng/ml), at 6 hours) was “protects from LPS-induced EC barrier disruption” and the “change in TER” value (Human pulmonary EC [1]; listed as High MW HA) was “dose-dependent increase in TER”. The “LPS-induced CD44 upregulation in mouse lungs” value (CD44; C57BL/6J mice, LPS challenged followed by HMW-HA) was “inhibited LPS-induced CD44 upregulation”, the “CD44 expression in mouse lungs” value (CD44; HMW-HA alone) was “no effect on CD44 expression” and the “EC morphological changes (AFM)” value (Human pulmonary EC [2]) was “caused dramatic morphological changes including increased thickening of EC junctions”. For the same substance, the “total number of lipid raft-like structures (AFM)” value (Human pulmonary EC [2]) was “did not change”, the “protective effect on LPS-induced pulmonary hyper-permeability (BAL) in knockout mice” value ([3]; CD44 knockout (and, where stated, Caveolin-1 knockout) mice, same regimen) was “markedly attenuated in the CD44 knockout mouse; also recorded: did not protect from LPS-induced ALI in CD44 and Caveolin-1 knockout mice; also recorded: protection was blocked in the CD44 knockout mouse; also recorded: but not the CD44 knockout” and the “TGF-alpha concentration in BAL fluids” value [3, 4] was “reduced the enhancing effect of LPS”. For the same substance, the “TGF-beta1 concentration in BAL fluids” value [3, 4] was “reduced the enhancing effect of LPS”, the “LPS-induced pulmonary hyper-permeability (BAL protein concentration)” value [3] was “pulmonary hyper-permeability was attenuated; also recorded: significant difference (p<0.05) between LPS and HMW-HA+LPS treatment in the wildtype” and the “LPS-induced pulmonary hyper-permeability (BAL protein concentration)” value ([3]; listed as HWM-HA) was “protected from LPS-induced vascular leakiness in vivo”. For the same substance, the “LPS-induced pulmonary hyper-permeability (BAL protein concentration)” value ([3]; listed as High MW hyaluronan) was “reduced the enhancing effect of LPS on BAL protein concentration”, the “LPS-induced pulmonary hyper-permeability (BAL protein concentration)” value ([3]; listed as high MW HA) was “attenuated the vascular hyper-permeability” and the “LPS-induced phosphorylation of MARCKS and NHE1” value (MARCKS and NHE1) was “inhibit LPS-induced phosphorylation of MARCKS and NHE1”.

In the case of hyaluronan [LMW-HA, reference compound], the “change in TER” value (Human pulmonary EC [1]; listed as low MW HA) is reported as “biphasic response ultimately leading to EC barrier disruption”.
